{"source": "patent US5750509A", "about": "“Amide derivatives of antibiotic A 40926” (Gruppo Lepetit S.p.A., priority 1991, dated 1998)", "key": {"[1]": {"system": "Enterococcus faecium L 1666", "assay": "MIC, glycopeptide-resistant Enterococcus faecium L 1666", "format": "cell-based"}, "[2]": {"system": "Staph. haemolyticus L 602", "assay": "MIC, microbroth dilution, Staph. haemolyticus L 602", "format": "cell-based", "conditions": "Table II"}, "[3]": {"system": "Enterococcus faecium L 565", "assay": "MIC, glycopeptide-resistant Enterococcus faecium L 565", "format": "cell-based"}, "[4]": {"system": "Entero. faecalis L 149", "assay": "MIC, microbroth dilution, Entero. faecalis L 149", "format": "cell-based", "conditions": "Table II"}, "[5]": {"system": "Enterococcus faecalis L 563", "assay": "MIC, glycopeptide-resistant Enterococcus faecalis L 563", "format": "cell-based", "conditions": "Table III"}, "[6]": {"system": "Esch. coli L 47", "assay": "MIC, microbroth dilution, Esch. coli L 47", "format": "cell-based", "conditions": "Table II"}, "[7]": {"system": "Strep. pneumoniae L 44", "assay": "MIC, microbroth dilution, Strep. pneumoniae L 44", "format": "cell-based", "conditions": "Table II"}, "[8]": {"system": "Staph. epidermidis L 533", "assay": "MIC, microbroth dilution, Staph. epidermidis L 533", "format": "cell-based", "conditions": "Table II"}, "[9]": {"system": "Enterococcus faecium L 569", "assay": "MIC, glycopeptide-resistant Enterococcus faecium L 569", "format": "cell-based"}, "[10]": {"system": "Enterococcus faecalis L 560", "assay": "MIC, glycopeptide-resistant Enterococcus faecalis L 560", "format": "cell-based", "conditions": "Table III"}, "[11]": {"system": "Entero. faecalis L 562", "assay": "MIC, microbroth dilution, Entero. faecalis L 562", "format": "cell-based, Enterococcus faecalis"}, "[12]": {"system": "Neisseria gonorrh. L 997", "assay": "MIC, microbroth dilution, Neisseria gonorrh. L 997", "format": "cell-based, Neisseria gonorrhoeae", "conditions": "Table II"}, "[13]": {"system": "Enterococcus faecium L 1681", "assay": "MIC, glycopeptide-resistant Enterococcus faecium L 1681", "format": "cell-based"}, "[14]": {"system": "Pseudomonas aerug. L 4", "assay": "MIC, microbroth dilution, Pseudomonas aerug. L 4", "format": "cell-based", "conditions": "Table II"}, "[15]": {"system": "Staph. aureus L 561", "assay": "MIC, microbroth dilution, Staph. aureus L 561", "format": "cell-based", "conditions": "Table II"}, "[16]": {"system": "Strep. pyogenes L 49", "assay": "MIC, microbroth dilution, Strep. pyogenes L 49", "format": "cell-based", "conditions": "Table II"}, "[17]": {"system": "Staph. aureus L 165", "assay": "MIC, microbroth dilution, Staph. aureus L 165", "format": "cell-based", "conditions": "Table II"}, "[18]": {"system": "Enterococcus faecium L 1680", "assay": "MIC, glycopeptide-resistant Enterococcus faecium L 1680", "format": "cell-based"}, "[19]": {"system": "Enterococcus faecium L 1650", "assay": "MIC, glycopeptide-resistant Enterococcus faecium L 1650", "format": "cell-based"}, "[20]": {"system": "Strep. pyogenes C 203", "assay": "experimental streptococcal septicemia in mice", "format": "in vivo", "conditions": "Strep. pyogenes C 203 septicemia, adm. route sc", "text": "The experiments have been carried out according to the procedure described by V. Arioli et al., Journal of Antibiotics 29, 511 (1976)."}, "[21]": {"system": "Proteus vulgaris L 79", "assay": "MIC, microbroth dilution, Proteus vulgaris L 79", "format": "cell-based", "conditions": "Table II"}, "[22]": {"system": "Enterococcus faecium L 564", "assay": "MIC, glycopeptide-resistant Enterococcus faecium L 564", "format": "cell-based"}, "[23]": {"system": "Enterococcus faecium L 1683", "assay": "MIC, glycopeptide-resistant Enterococcus faecium L 1683", "format": "cell-based"}, "[24]": {"system": "Enterococcus faecium L 1652", "assay": "MIC, glycopeptide-resistant Enterococcus faecium L 1652", "format": "cell-based"}, "[25]": {"system": "Staph. epidermidis L 147", "assay": "MIC, microbroth dilution, Staph. epidermidis L 147", "format": "cell-based", "conditions": "Table II"}, "[26]": {"system": "highly glycopeptide-resistant enterococci", "assay": "in vitro activity against highly glycopeptide-resistant enterococci (summary)", "format": "cell-based"}, "[27]": {"system": "Enterococcus faecium L 1686", "assay": "MIC, glycopeptide-resistant Enterococcus faecium L 1686", "format": "cell-based"}}, "data": [{"compound": "teicoplanin", "values": [{"measurement": "MIC", "setting": "[1]; Enterococcus faecium L 1666, Table III", "result": "> 128", "unit": "µg/mL"}, {"measurement": "MIC", "setting": "[2]", "result": 32, "unit": "µg/mL"}, {"measurement": "MIC", "setting": "[3]; Enterococcus faecium L 565, Table III", "result": "> 128", "unit": "µg/mL"}, {"measurement": "MIC", "setting": "[4]", "result": 0.13, "unit": "µg/mL"}, {"measurement": "MIC", "setting": "[5]", "result": "> 128", "unit": "µg/mL"}, {"measurement": "MIC", "setting": "[6]", "result": "> 128", "unit": "µg/mL"}, {"measurement": "MIC", "setting": "[7]", "result": 0.06, "unit": "µg/mL"}, {"measurement": "MIC", "setting": "[8]", "result": 8, "unit": "µg/mL"}, {"measurement": "MIC", "setting": "[9]; Enterococcus faecium L 569, Table III", "result": "> 128", "unit": "µg/mL"}, {"measurement": "MIC", "setting": "[10]", "result": "> 128", "unit": "µg/mL"}, {"measurement": "MIC", "setting": "[11]; Entero. faecalis L 562, Table II", "result": "> 128", "unit": "µg/mL"}, {"measurement": "MIC", "setting": "[11]; Enterococcus faecalis L 562, Table III", "result": "> 128", "unit": "µg/mL"}, {"measurement": "MIC", "setting": "[12]", "result": 32, "unit": "µg/mL"}, {"measurement": "MIC", "setting": "[13]; Enterococcus faecium L 1681, Table III", "result": "> 128", "unit": "µg/mL"}, {"measurement": "MIC", "setting": "[14]", "result": "> 128", "unit": "µg/mL"}, {"measurement": "MIC", "setting": "[15]", "result": 8, "unit": "µg/mL"}, {"measurement": "MIC", "setting": "[16]", "result": 0.13, "unit": "µg/mL"}, {"measurement": "MIC", "setting": "[17]", "result": 0.25, "unit": "µg/mL"}, {"measurement": "MIC", "setting": "[18]; Enterococcus faecium L 1680, Table III", "result": "> 128", "unit": "µg/mL"}, {"measurement": "MIC", "setting": "[19]; Enterococcus faecium L 1650, Table III", "result": "> 128", "unit": "µg/mL"}, {"measurement": "ED50", "setting": "[20]", "result": 0.16, "unit": "mg/kg"}, {"measurement": "MIC", "setting": "[21]", "result": "> 128", "unit": "µg/mL"}, {"measurement": "MIC", "setting": "[22]; Enterococcus faecium L 564, Table III", "result": "> 128", "unit": "µg/mL"}, {"measurement": "MIC", "setting": "[23]; Enterococcus faecium L 1683, Table III", "result": "> 128", "unit": "µg/mL"}, {"measurement": "MIC", "setting": "[24]; Enterococcus faecium L 1652, Table III", "result": "> 128", "unit": "µg/mL"}, {"measurement": "MIC", "setting": "[25]", "result": 4, "unit": "µg/mL"}, {"measurement": "in vitro activity / resistance in words", "setting": "[26]", "result": "highly resistant"}, {"measurement": "MIC", "setting": "[27]; Enterococcus faecium L 1686, Table III", "result": "> 128", "unit": "µg/mL"}]}, {"compound": "CN[C@H](CC(C)C)C(=O)N[C@H]1C(=O)N[C@@H](CC(N)=O)C(=O)N[C@H]2C(=O)N[C@H]3C(=O)N[C@H](C(=O)N[C@H](C(=O)O)c4cc(O)cc(O)c4-c4cc3ccc4O)[C@H](O)c3ccc(c(Cl)c3)Oc3cc2cc(c3O[C@@H]2O[C@H](CO)[C@@H](O)[C@H](O)[C@H]2O[C@H]2C[C@](C)(N)[C@H](O)[C@H](C)O2)Oc2ccc(cc2Cl)[C@H]1O", "note": "[VANCOMYCIN, vancomycin]", "values": [{"measurement": "MIC", "setting": "[1]; Enterococcus faecium, L1666", "result": "> 128", "unit": "µg/mL"}, {"measurement": "MIC", "setting": "[3]; Enterococcus faecium, L565", "result": "> 128", "unit": "µg/mL"}, {"measurement": "MIC", "setting": "[9]; Enterococcus faecium, L569", "result": "> 128", "unit": "µg/mL"}, {"measurement": "MIC", "setting": "[11]; Enterococcus faecalis, L562", "result": "> 128", "unit": "µg/mL"}, {"measurement": "MIC", "setting": "[13]; Enterococcus faecium, L1681", "result": "> 128", "unit": "µg/mL"}, {"measurement": "MIC", "setting": "[18]; Enterococcus faecium, L1680", "result": "> 128", "unit": "µg/mL"}, {"measurement": "MIC", "setting": "[19]; Enterococcus faecium, L1650", "result": "> 128", "unit": "µg/mL"}, {"measurement": "MIC", "setting": "[22]; Enterococcus faecium, L564", "result": "> 128", "unit": "µg/mL"}, {"measurement": "MIC", "setting": "[23]; Enterococcus faecium, L1683", "result": "> 128", "unit": "µg/mL"}, {"measurement": "MIC", "setting": "[24]; Enterococcus faecium, L1652", "result": "> 128", "unit": "µg/mL"}, {"measurement": "in vitro activity / resistance in words", "setting": "[26]", "result": "highly resistant"}, {"measurement": "MIC", "setting": "[27]; Enterococcus faecium, L1686", "result": "> 128", "unit": "µg/mL"}]}]}
